One series relates to MOLM16. Description: Cell growth inhibition (CellTiter-Glo), leukemia line MOLM16. It counts as cell-based. As to the method: (§1) Cell growth inhibitory activity of representative BET bromodomain degraders in representative non-small cell lung cancer cell lines was determined using the CellTiter-Glo® Luminescent Cell Viability Assay. Cells were seeded in 384-well white opaque cell culture plates at a density of 2,000 cells/well with serially diluted compounds and incubated at 37° C. in an atmosphere of 95% air and 5% CO2 for 4 days. Cell viability was determined using the CellTiter-Glo® Luminescent Cell Viability Assay Kit (Promega, Madison, Wis.) according to the manufacture's instruction. Briefly, a volume of CellTiter-Glo® Reagent equal to the volume of cell culture medium was added to each well, and then the plates were incubated at room temperature for 10-20 minutes. The luminescent signal was measured using a Tecan Infinite M1000 multimode microplate reader (Tecan, Morrisville, N.C.). The half maximal inhibitory concentration (IC50) was calculated using the GraphPad Prism 5 software (GraphPad Software, La Jolla, Calif.). Cpd. A is a BET bromodomain inhibitor, see U.S. Appl. No. 62/121,637, having the following structure: Cell growth inhibitory activity of representative BET bromodomain degraders in representative leukemia cell lines, see Table 8, was determined as described in Example 17.

The test system of a further series is RS4; 11. Description: Cell growth inhibition (CellTiter-Glo), leukemia line RS4; 11. To be noted: Homo sapiens, 11 leukemia cell line. Format: cell-based. As to the method:
as §1

A further series concerns K61. Description: Cell growth inhibition (CellTiter-Glo), leukemia line K61. It counts as cell-based. As to the method:
as §1

For the next series, the system named is AML-193. Description: Cell growth inhibition (CellTiter-Glo), leukemia line AML-193. Format: cell-based. To be noted: AML-193 leukemia cell line. The method, then:
as §1

Another series has as its system BET proteins. Kind of series: PD analysis of BET proteins in WHIM24 tumors. It counts as in vivo, mice. To be noted: single IV dose 10 mg/kg. The method, then:
(§2) Cpd. […] A at 50 mg/kg, daily, oral dosing, 5 days a week for 3 weeks. Cpd. […] Neither Cpd. A nor Cpd. No. 4 caused significant weight loss (data not shown) or apparent toxicity in this model. […] No. 4 (10 mg/kg) reduced the levels of BET proteins by >80% at as early as 1 h and this effect lasted for at least 9 h in WHIM24 tumors (data not shown). […] No. 4 treatment (data not shown). […] No. 4 is reversible once the drug is cleared from the tumor tissue.

The nature of series [1]: Pharmacokinetics (PK) analysis in tumor bearing mice. Format: in vivo. As to the method:
as §2

The subject of the next series is MDA-MB-468 xenograft. Kind of series: In vivo antitumor activity in MDA-MB-468 xenograft model. More on the design: species or system SCID mice. As to the method:
For the in vivo efficacy experiments of this example, when tumors reached 80-200 mm^3, SCID mice were randomized into groups. Cpd. A, Cpd. No. 4, Cpd. No. 6, or vehicle control (10% PEG400: 3% Cremophor: 87% PBS, or 2% TPGS:98% PEG200) was given at the dose and duration indicated. Tumor sizes and animal weights were measured 2-3 times per week. Tumor volume (mm^3)=(length×width^2)/2. Tumor growth inhibition was calculated as TGI (%)=(Vc−Vt)/(Vc−Vo)*100, where Vc, Vt are the median of control and treated groups at the end of the study and Vo at the start. All the in vivo studies were performed under an animal protocol approved by the University Committee on Use and Care of Animals of the University of Michigan, in accordance with the recommendations in the Guide for the Care and Use of Laboratory Animals of the National Institutes of Health.
No. 4 was determined in xenograft tumor models of TNBC cell lines.

As usually defined, the IC50 is the point on the concentration scale where inhibition reaches its midpoint. Read a high IC50 as weaker potency. Turning to `CCn1nc(C2CC2)cc1Nc1nc(C(=O)NCCCOCCOCCOCCCNc2cccc3c2C(=O)N(C2CCC(=O)NC2=O)C3=O)nc2[nH]c3cc(-c4c(C)noc4C)c(OC)cc3c12` (stereo not shown) [Cpd. No. 4], the IC50 in the series with MOLM16 was 300 nM; in the series on RS4; 11 it was 50 nM; in the series with K61, 11800 nM; in the series on AML-193 it was 40 nM. For the same compound, the “time at which protein levels of BRD2, BRD4 and MCL1 started to rebound” value in the series on BET proteins (WHIM24 tumors) was determined as 12 h. Moreover, in the series on BET proteins, the “duration of the reduction of BET proteins in WHIM24 tumors” value is “at least 9 h”. In the series with BET proteins (at as early as 1 h (data not shown)), the “reduction of the levels of BET proteins in WHIM24 tumors” value is over 80%. Further, the “drug exposure in the xenograft tumor tissue” value in series [1] (MDA-MB-231 and MDA-MB-468 models (data not shown)) is given as “limited drug exposure”. Also, in series [1] (WHIM24 model), the “drug exposure in the WHIM24 xenograft tumor tissue” value is given as “good drug exposure”. Besides, the “drug concentrations in both plasma and tumors over time” value in series [1] (single dose 10 mg/kg, WHIM24 tumor bearing mice (data not shown)) is on record as “diminished rapidly”. For the same compound, in series [1] (single dose 10 mg/kg, tumor bearing mice, at 1 and 3 h (data not shown)), the “drug exposure in plasma and WHIM24 tumors” value is reported as “reasonable drug exposure”. Further, the antitumor activity result in the series on MDA-MB-468 xenograft (MDA-MB-468 model, 10 mg/kg, IV, 3 times per week for 2-3 weeks (FIG. 11)) is listed as “limited or no antitumor activity”. In addition, the tumor growth result in the series on MDA-MB-468 xenograft (MDA-MB-468 xenograft model in mice (FIG. 11)) is given as “reduce tumor growth”.

Values taken from patent US10633386B2, “BET protein degraders” (THE REGENTS OF THE UNIVERSITY OF MICHIGAN, priority 2016, dated 2020).
